# Laboratory results: PubChem BioAssay (NCI)
#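 Grown in 96-well plates, cells were treated for 48 hours with each compound at five concentrations. Insufficient inhibition: endpoint recorded as highest concentration tested. TGI: concentration producing complete growth inhibition.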
# Key:
# Experiment in all cases: NCI tumour cell line growth inhibition, 48 h
# [1] = test system: 786-0 renal
# [2] = test system: A498 renal
# [3] = test system: A549 NSCLC
# [4] = test system: ACHN renal
# [5] = test system: BT-549 breast
# [6] = test system: CAKI-1 renal
# [7] = test system: CCRF-CEM leukemia
# [8] = test system: COLO 205 colon
# [9] = test system: DU-145 prostate
# [10] = test system: EKVX NSCLC
# [11] = test system: HCC-2998 colon
# [12] = test system: HCT-116 colon
# [13] = test system: HCT-15 colon
# [14] = test system: HL-60(TB) leukemia
# [15] = test system: HOP-62 NSCLC
# [16] = test system: HOP-92 NSCLC
# [17] = test system: HS 578T breast
# [18] = test system: HT29 colon
# [19] = test system: IGROV1 ovarian
# [20] = test system: K-562 leukemia
# [21] = test system: KM12 colon
# [22] = test system: LOX IMVI melanoma
# [23] = test system: M14 melanoma
# [24] = test system: MALME-3M melanoma
# [25] = test system: MCF7 breast
# [26] = test system: MDA-MB-231 breast
# [27] = test system: MDA-MB-435
# [28] = test system: MDA-N
# [29] = test system: MOLT-4 leukemia
# [30] = test system: NCI-H226 lung
# [31] = test system: NCI-H23 lung
# [32] = test system: NCI-H460 lung
# [33] = test system: NCI-H522 lung
# [34] = test system: NCI/ADR-RES ovarian
# [35] = test system: OVCAR-3 ovarian
# [36] = test system: OVCAR-4 ovarian
# [37] = test system: OVCAR-5 ovarian
# [38] = test system: OVCAR-8 ovarian
# [39] = test system: PC-3 prostate
# [40] = test system: RPMI-8226 leukemia
# [41] = test system: RXF 393 renal
# [42] = test system: SF-268 CNS
# [43] = test system: SF-295 CNS
# [44] = test system: SF-539 CNS
# [45] = test system: SK-MEL-2 melanoma
# [46] = test system: SK-MEL-28 melanoma
# [47] = test system: SK-MEL-5 melanoma
# [48] = test system: SK-OV-3 ovarian
# [49] = test system: SN12C renal
# [50] = test system: SNB-19 CNS
# [51] = test system: SNB-75 CNS
# [52] = test system: SW-620 colon
# [53] = test system: T-47D breast
# [54] = test system: TK-10 renal
# [55] = test system: U251 CNS
# [56] = test system: UACC-257 melanoma
# [57] = test system: UACC-62 melanoma
# [58] = test system: UO-31 renal
smiles,measurement,setting,value
c1ccc(/C(=N\Nc2nc3ccccc3s2)c2ccccn2)cc1,TGI,[1],24.4 µM
same,TGI,[2],70.1 µM
same,TGI,[3],> 100 µM
same,TGI,[4],> 28.8 µM
same,TGI,[5],> 100 µM
same,TGI,[6],> 100 µM
same,TGI,[7],1.07 µM
same,TGI,[8],16.9 µM
same,TGI,[9],30 µM
same,TGI,[10],15.4 µM
same,TGI,[11],46 µM
same,TGI,[12],9.16 µM
same,TGI,[13],> 100 µM
same,TGI,[14],6.54 µM
same,TGI,[15],97.8 µM
same,TGI,[16],> 71.6 µM
same,TGI,[17],> 88.9 µM
same,TGI,[18],47.1 µM
same,TGI,[19],> 48.2 µM
same,TGI,[20],> 44.1 µM
same,TGI,[21],> 100 µM
same,TGI,[22],42.4 µM
same,TGI,[23],22.6 µM
same,TGI,[24],34.4 µM
same,TGI,[25],> 72.5 µM
same,TGI,[26],> 100 µM
same,TGI,[27],> 100 µM
same,TGI,[28],> 100 µM
same,TGI,[29],4.17 µM
same,TGI,[30],29.7 µM
same,TGI,[31],> 100 µM
same,TGI,[32],12.8 µM
same,TGI,[33],36.7 µM
same,TGI,[34],> 100 µM
same,TGI,[35],1.72 µM
same,TGI,[36],> 100 µM
same,TGI,[37],> 51.4 µM
same,TGI,[38],> 100 µM
same,TGI,[39],> 53.2 µM
same,TGI,[40],27.9 µM
same,TGI,[41],23.3 µM
same,TGI,[42],> 50.4 µM
same,TGI,[43],> 100 µM
same,TGI,[44],> 56.6 µM
same,TGI,[45],> 61.8 µM
same,TGI,[46],> 100 µM
same,TGI,[47],7.91 µM
same,TGI,[48],98.6 µM
same,TGI,[49],39.8 µM
same,TGI,[50],> 100 µM
same,TGI,[51],> 100 µM
same,TGI,[52],> 100 µM
same,TGI,[53],52.5 µM
same,TGI,[54],37.5 µM
same,TGI,[55],> 40.9 µM
same,TGI,[56],> 25.9 µM
same,TGI,[57],27.5 µM
same,TGI,[58],16.3 µM
